Measurements reported in patent publication US10865384B2, “2,4,5-tri-substituted azole-based casein kinase 1 inhibitors as inducers for cardiomyogenesis” (AGENCY FOR SCIENCE, TECHNOLOGY AND RESEARCH, priority 2014, dated 2020).
Entries after “also recorded” stand apart in the source; their conditions may differ. Where two headings read alike, the source gives them in different places.

Columns and labels:
CK1δ = CK1δ (Homo sapiens (Human), UniProt P48730); assay: LanthaScreen Eu kinase binding assay, CK1δ
Sequence of CK1δ (P48730 whole entry): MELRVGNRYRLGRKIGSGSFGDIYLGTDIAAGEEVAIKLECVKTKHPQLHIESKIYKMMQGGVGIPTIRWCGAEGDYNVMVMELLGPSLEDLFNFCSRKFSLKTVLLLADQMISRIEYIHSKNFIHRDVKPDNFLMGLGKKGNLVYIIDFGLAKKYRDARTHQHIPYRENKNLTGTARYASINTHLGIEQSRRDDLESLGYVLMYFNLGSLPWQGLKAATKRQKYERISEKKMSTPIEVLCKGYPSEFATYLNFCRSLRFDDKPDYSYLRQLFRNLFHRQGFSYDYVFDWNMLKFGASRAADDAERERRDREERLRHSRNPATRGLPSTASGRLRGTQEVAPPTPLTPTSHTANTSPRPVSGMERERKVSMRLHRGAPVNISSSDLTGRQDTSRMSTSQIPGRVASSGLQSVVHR

HES-3 = assay: Differentiation on microcarriers; format: cell-based, human; details: microcarrier platform, 5 μM
Protocol: HES-3 were seeded at 2×10^5 cells/ml in the 50 ml spinner flask that contained 25 ml hESC medium and 200 mg PLL+LN-coated MC (poly-L-lysine and laminin coated microcarrier). The sample was incubated at 37° C./5% carbon dioxide for 24 hours in static conditions, after which another 25 ml hESC medium were added and the culture was then agitated at 30 rpm for 6 days. Eighty percent of the spent medium was replaced daily with fresh hESC medium. The cell concentration and cell viability were determined daily using a Nucleocounter NC-3000 (Chemometec, Davis, Calif., USA). Pluripotent markers were measured by flow cytometry on day 7. The size of the hESC/MC aggregates was measured from images taken using an Olympus IX70 microscope (Olympus, Shinjuku-ku, Tokoyo, Japan), with average dimensions determined using NIH image J software.
After 24 hours the differentiation medium was replenished, and 5 μM IWP-2 or TA-01 was added at day 3. […] On day 20 of the differentiation protocol, cells from all cultures were harvested and analyzed by fluorescence-activated cell sorting (FACS) for cardiac markers MLC2a and Tropoin T (cTnt) and MF20.
Studies with the 2,4,5-tri-substituted azole compounds were done at a fixed concentration of 5 μM at an induction day 2 and alternatively at day 3. […] On day 14 of differentiation, EBs were visually analysed for cardiomyocyte differentiation. […]

CK1ϵ = CK1ϵ (Homo sapiens (Human), UniProt P49674); assay: LanthaScreen Eu kinase binding assay, CK1ϵ
Sequence of CK1ϵ (P49674 whole entry): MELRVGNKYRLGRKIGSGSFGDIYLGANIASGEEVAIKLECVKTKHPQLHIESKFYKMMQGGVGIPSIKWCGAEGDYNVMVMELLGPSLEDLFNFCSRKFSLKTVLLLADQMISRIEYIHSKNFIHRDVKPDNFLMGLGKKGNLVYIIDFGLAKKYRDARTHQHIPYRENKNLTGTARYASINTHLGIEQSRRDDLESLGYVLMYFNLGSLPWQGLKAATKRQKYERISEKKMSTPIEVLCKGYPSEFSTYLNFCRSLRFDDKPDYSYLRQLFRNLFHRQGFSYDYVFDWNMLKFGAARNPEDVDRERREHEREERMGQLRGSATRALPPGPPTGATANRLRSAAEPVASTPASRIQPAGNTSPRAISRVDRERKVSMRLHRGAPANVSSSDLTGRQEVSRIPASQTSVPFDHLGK

H3 hESCs Nkx2.5eGFP/w = assay: High yield cardiomyocyte differentiation after 24 h CHIR99021 pre-treatment; format: cell-based, human
p38α MAPK [1] = target: T1, p38α MAPK (Homo sapiens (Human), UniProt Q16539); assay: HitHunter p38 MAP kinase binding assay; details: read-out: p38α MAPK IC50 ± SEM
T1 sequence (Q16539 whole entry, looked up): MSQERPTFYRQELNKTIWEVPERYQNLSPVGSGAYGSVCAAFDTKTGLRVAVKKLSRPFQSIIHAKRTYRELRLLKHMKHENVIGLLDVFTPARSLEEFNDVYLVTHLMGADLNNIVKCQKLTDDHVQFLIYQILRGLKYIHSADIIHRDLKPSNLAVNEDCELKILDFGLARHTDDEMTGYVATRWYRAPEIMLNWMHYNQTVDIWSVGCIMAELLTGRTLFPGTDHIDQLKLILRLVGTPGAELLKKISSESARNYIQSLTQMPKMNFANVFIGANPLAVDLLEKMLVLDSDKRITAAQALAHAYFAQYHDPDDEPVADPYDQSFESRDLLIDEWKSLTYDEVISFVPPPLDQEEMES

hESC3 Nkx2.5eGFP/w cells [2] = assay: Cardiomyocyte differentiation of embryoid bodies, Nkx2.5 GFP by flow cytometry; format: cell-based, human; details: for Cardiogenic effect (GFP expression fold over DMSO): 5 μM
hESC3 Nkx2.5eGFP/w cells [3] = assay: Differentiation in 96-U bottom ultra-low attachment well plates, GFP area imaging; format: cell-based, human; details: 5 μM; for Average GFP %: after CHIR99021, read on day 14, GFP area over embryoid body size; for Average GFP μm^2 / Average Area μm^2: day 14; for Average Area μm^2: embryoid body size
p38α MAPK [4] = target: T1, p38α MAPK; assay: LanthaScreen Eu kinase binding assay, p38 MAPK (IM-32 to IM-44); details: LanthaScreen Eu binding assay (IM-32 to IM-44); read-out: p38α MAPK IC50 ± SEM
Protocol: The p38 MAPK IC50 values of selected compounds except IM-32 to IM-44 were determined using the HitHunter™ p38 MAP kinase binding assay from DiscoveRx Corporation (Fremont, Calif., USA). The p38 MAPK IC50 values of IM-32 to IM-44 and the CK1 IC50 values of selected compounds were determined using LanthaScreen™ Eu kinase binding assay from Invitrogen (Life Technologies, Carlsbad, Calif., USA). The assays were performed following the manufacturers' protocols in white 384-well plates (Cat. No. 3572; Corning Incorporated, Corning, N.Y., USA). SB203580 was used as the control in all assays. For the HitHunter™ p38 MAP kinase binding assay the compounds were dissolved in DMSO (5 mM stocks) and diluted to a final concentration of 2% (vol/vol) DMSO for all assays. Recombinant GST-tagged active p38α MAP kinase enzyme (Millipore, Billerica, Mass., USA) was used for the HitHunter™ p38 MAP kinase binding assay. For the LanthaScreen™ Eu kinase binding assay the compounds were dissolved in DMSO (5 mM stocks) and diluted to a final concentration of 1% (vol/vol) DMSO for all assays. Each data point was done in triplicate. The assay was run using JANUS Automated Workstation according to the protocol developed using WinPREP software (Perkin Elmer Inc., Waltham, Mass., USA). Tecan Infinite® M1000 microplate reader (Tecan Group Ltd., Minnedorf, Switzerland) was used for luminescence measurements (HitHunter™ p38 MAP kinase binding assay) and fluorescence measurements (LanthaScreen™ Eu kinase binding assay; ex=340 nm, em=665, 615 nm). All data analysis was performed using GraphPad Prism 5 software (GraphPad Software Inc.). Inhibition curves and IC50 values were generated by nonlinear regression analysis and data represent mean±SEM.
The in vitro IC50 values of the synthesized compounds against the relevant kinase targets are summarized. The IC50 values were determined using either the HitHunter™ p38 MAPK binding assay from DiscoveRx or the LanthaScreen™ Eu kinase binding assay (for p38alpha MAPK, CK1delta, and CK1epsilon) from Invitrogen.

porcupine/Wnt = details: read-out: IC50 (published by companies), porcupine/Wnt inhibition; cited from earlier work
p38α MAPK [5] = details: read-out: IC50 (published by companies), p38α MAPK inhibition; cited from earlier work
TNF-a = details: read-out: IC50 (published by companies), TNF-a inhibition; cited from earlier work
p38 MAPK = details: read-out: IC50 (published by companies), p38 MAPK inhibition; cited from earlier work
[6] = CHIR99021 only, CHIR99021 with SB203580 (days 1-8), CHIR99021 with IM-31 (days 4-8)

## Fc1ccc(-c2nc(-c3c(F)cccc3F)[nH]c2-c2ccncc2)cc1 [IM-31, 4-(2-(2,6-difluorophenyl)-4(5)-(4-fluorophenyl)-1H-imidazol-5(4)-yl)pyridine]
CK1δ; Table 3, read-out: IC50 CK1δ
  IC50: 6.8 nM
CK1δ; read-out: CK1δ IC50 ± SEM
  IC50: 6.8 ± 0.9 nM
HES-3
  Amounts of cardiomyocytes (cell numbers) compared to IWP-2: same amounts of cardiomyocytes
CK1ϵ; Table 3, read-out: IC50 Ck1ε
  IC50: 6.4 nM
CK1ϵ; read-out: CK1ϵ IC50 ± SEM
  IC50: 6.4 ± 0.4 nM
H3 hESCs Nkx2.5eGFP/w; 3 μM CHIR99021 24 h then 5 μM days 4-8, day 11
  Total cell count, fold increase (cell expansion): 2 fold
H3 hESCs Nkx2.5eGFP/w; [6]
  Average beating frequency: 25-30 beats per minute
  Beat count (percentage of EBs contracting within 10 s): over 75%
  Beating area: > 5 mm^2
H3 hESCs Nkx2.5eGFP/w; CHIR99021 then 5 μM days 1-8
  Cardiomyocyte development: inhibition of cardiomyocytes development
H3 hESCs Nkx2.5eGFP/w; CHIR99021 then 5 μM days 4-8, day 11
  Cardiomyocyte yield, cardiomyocytes per hESC seeded: ~1.2 cardiomyocytes per hESC seeded
H3 hESCs Nkx2.5eGFP/w; combination with CHIR99021
  Cardiomyocyte yield compared to other Wnt inhibitor compounds such as IWP-2: twofold increase in cardiomyocyte yield
p38α MAPK [1]
  IC50: 6.7 ± 1.5 nM
hESC3 Nkx2.5eGFP/w cells [2]; 1 μM
  Cardiogenic effect (Nkx2.5 expression): same cardiogenic effect as 5 μM of SB203580
hESC3 Nkx2.5eGFP/w cells [2]; days 1-8 of differentiation
  Cardiogenic effect (GFP expression fold over DMSO): complete inhibition of cardiomyocyte development; also recorded: failed to induced cardiomyogenesis
hESC3 Nkx2.5eGFP/w cells [2]; days 4-8 of differentiation
  Cardiogenic effect (GFP expression fold over DMSO): good inducers
hESC3 Nkx2.5eGFP/w cells [2]; applied as the sole inhibitor
  Cardiomyocytes generated: 10-20%
hESC3 Nkx2.5eGFP/w cells [3]; at specific time course (induction day 2 or 3)
  Cardiogenic properties: higher cardiogenic properties as SB203580 and IWP-2
hESC3 Nkx2.5eGFP/w cells [3]; Induction Day 2
  Average GFP %: 1.5%
  Average GFP μm^2: 19.1 μm^2
  Average Area μm^2: 814.7 μm^2
hESC3 Nkx2.5eGFP/w cells [3]; Induction Day 3
  Average GFP %: 31.1%
  Average GFP μm^2: 476.6 μm^2
  Average Area μm^2: 1529.1 μm^2

## Cc1cccc(-c2nc(-c3ccc([N+](=O)[O-])cc3)[nH]c2-c2ccncc2)c1 [IM-32, 4-(2-(4-nitrophenyl)-4(5)-(m-tolyl)-1H-imidazol-5(4)-yl)pyridine]
CK1δ
  inhibition at 1 µM: 31%
CK1ϵ
  inhibition at 1 µM: 47%
p38α MAPK [4]
  IC50: 4.4 ± 2.4 nM

## Cc1cccc(-c2nc(-c3ccc(S(C)(=O)=O)cc3)[nH]c2-c2ccncc2)c1 [IM-33, 4-(2-(4-(methylsulfonyl)phenyl)-4(5)-(m-tolyl)-1H-imidazol-5(4)-yl)pyridine]
CK1δ
  inhibition at 1 µM: 23%
CK1ϵ
  inhibition at 1 µM: 36%
p38α MAPK [4]
  IC50: 9.5 ± 2.8 nM

## Cc1cccc(-c2nc(-c3ccc(N)cc3)[nH]c2-c2ccncc2)c1 [IM-34, 4-(5(4)-(pyridin-4-yl)-4(5)-(m-tolyl)-1H-imidazol-2-yl)aniline]
CK1δ
  inhibition at 1 µM: 24%
CK1ϵ
  inhibition at 1 µM: 28%
p38α MAPK [4]
  IC50: 2.8 ± 2 nM

## Cc1cccc(-c2nc(-c3ccc(NS(C)(=O)=O)cc3)[nH]c2-c2ccncc2)c1 [IM-35, N-(4-(5(4)-(pyridin-4-yl)-4(5)-(m-tolyl)-1H-imidazol-2-yl)phenyl)methanesulfonamide]
CK1δ
  inhibition at 1 µM: 13%
CK1ϵ
  inhibition at 1 µM: 40%
p38α MAPK [4]
  IC50: 5 nM

## Cc1cccc(-c2nc(-c3ccc(C#N)cc3)[nH]c2-c2ccncc2)c1 [IM-36, 4-(5(4)-(pyridin-4-yl)-4(5)-(m-tolyl)-1H-imidazol-2-yl)benzonitrile]
CK1δ
  inhibition at 1 µM: 11%
CK1ϵ
  inhibition at 1 µM: 36%
p38α MAPK [4]
  IC50: 5.3 ± 0.5 nM

## Cc1cccc(-c2nc(-c3ccc(C(=N)NO)cc3)[nH]c2-c2ccncc2)c1 [IM-37, (Z)—N′-hydroxy-4-(5(4)-(pyridin-4-yl)-4(5)-(m-tolyl)-1H-imidazol-2-yl)benzimidamide]
CK1δ; Table 3, read-out: IC50 CK1δ
  IC50: 889 nM
CK1δ; read-out: CK1δ IC50 ± SEM
  IC50: 889 ± 290 nM
CK1ϵ; Table 3, read-out: IC50 Ck1ε
  IC50: 295 nM
CK1ϵ; read-out: CK1ϵ IC50 ± SEM
  IC50: 295 ± 48 nM
p38α MAPK [4]
  IC50: 3.2 ± 0.3 nM

## Cc1cccc(-c2nc(-c3ccc(C(=O)O)cc3)[nH]c2-c2ccncc2)c1 [IM-38, 4-(5(4)-(pyridin-4-yl)-4(5)-(m-tolyl)-1H-imidazol-2-yl)benzoic acid]
CK1δ; Table 3, read-out: IC50 CK1δ
  IC50: 4710 nM
CK1δ; read-out: CK1δ IC50 ± SEM
  IC50: 4710 ± 1620 nM
CK1ϵ; Table 3, read-out: IC50 Ck1ε
  IC50: 1060 nM
CK1ϵ; read-out: CK1ϵ IC50 ± SEM
  IC50: 1060 ± 108 nM
p38α MAPK [4]
  IC50: 3.3 ± 1.1 nM

## Cc1cccc(-c2nc(-c3ccc(C(N)=O)cc3)[nH]c2-c2ccncc2)c1 [IM-39, 4-(5(4)-(pyridin-4-yl)-4(5)-(m-tolyl)-1H-imidazol-2-yl)benzamide]
CK1δ; Table 3, read-out: IC50 CK1δ
  IC50: 787 nM
CK1δ; read-out: CK1δ IC50 ± SEM
  IC50: 787 ± 98 nM
CK1ϵ; Table 3, read-out: IC50 Ck1ε
  IC50: 300 nM
CK1ϵ; read-out: CK1ϵ IC50 ± SEM
  IC50: 300 ± 16 nM
p38α MAPK [4]
  IC50: 2.7 ± 0.3 nM

## COC(=O)c1ccc(-c2nc(-c3cccc(C)c3)c(-c3ccncc3)[nH]2)cc1 [IM-40, Methyl 4-(5(4)-(pyridin-4-yl)-4(5)-(m-tolyl)-1H-imidazol-2-yl)benzoate]
CK1δ
  inhibition at 1 µM: 10%
CK1ϵ
  inhibition at 1 µM: 43%
p38α MAPK [4]
  IC50: 3.7 ± 0.7 nM

## Cc1cccc(-c2nc(C#CCCO)[nH]c2-c2ccncc2)c1 [IM-41, 4-(5(4)-(pyridin-4-yl)-4(5)-(m-tolyl)-1H-imidazol-2-yl)but-3-yn-1-ol]
CK1δ
  inhibition at 1 µM: 11%
CK1ϵ
  inhibition at 1 µM: 38%
p38α MAPK [4]
  IC50: 47 ± 5 nM

## Cc1cccc(-c2nc(CN(C)C)[nH]c2-c2ccncc2)c1 [IM-42, N,N-dimethyl-1-(5(4)-(pyridin-4-yl)-4(5)-(m-tolyl)-1H-imidazol-2-yl)methanamine]
CK1δ
  inhibition at 1 µM: 3%
CK1ϵ
  inhibition at 1 µM: 29%
p38α MAPK [4]
  IC50: 26 ± 3 nM

## Cc1cccc(-c2nc[nH]c2-c2ccncc2)c1 [IM-44, 4-(4(5)-(m-tolyl)-1H-imidazol-5(4)-yl)pyridine]
CK1δ
  inhibition at 1 µM: 4%
CK1ϵ
  inhibition at 1 µM: 42%
p38α MAPK [4]
  IC50: 45 ± 8 nM

## Cc1ccc2nc(NC(=O)CSc3nc4c(c(=O)n3-c3ccccc3)SCC4)sc2c1 [IWP-2, reference compound]
H3 hESCs Nkx2.5eGFP/w; CHIR99021 then 5 μM days 4-8
  Cell growth: strongly reduced cell growth
H3 hESCs Nkx2.5eGFP/w; combination with CHIR99021, days 4-8
  Cardiomyocyte functionality: reduced functionality
porcupine/Wnt
  IC50: 27 nM
hESC3 Nkx2.5eGFP/w cells [3]; Induction Day 2
  Average GFP %: 4.8%
  Average GFP μm^2: 19.6 μm^2
  Average Area μm^2: 362.9 μm^2
hESC3 Nkx2.5eGFP/w cells [3]; Induction Day 3
  Average GFP %: 38.4%
  Average GFP μm^2: 216.9 μm^2
  Average Area μm^2: 604.5 μm^2

## Oc1ccc(-c2nc(-c3ccc(F)cc3)c(-c3ccncc3)[nH]2)cc1 [SB202190, reference compound]
CK1δ; Table 3, read-out: IC50 CK1δ
  IC50: 53 nM
CK1δ; read-out: CK1δ IC50 ± SEM
  IC50: 53 ± 7 nM
CK1ϵ; Table 3, read-out: IC50 Ck1ε
  IC50: 83 nM
CK1ϵ; read-out: CK1ϵ IC50 ± SEM
  IC50: 83 ± 4 nM
p38α MAPK [5]
  IC50: […]

## Skepinone-L
TNF-a
  IC50: 40 nM
p38 MAPK
  IC50: 5 nM
